Measurements reported in ChEMBL document CHEMBL1201862, “PubChem BioAssay data set” (2004).
Active and inactive are the calls of the source.

Assays:
[1] = viability loss in Vero cells – cytotoxicity control for Vif-APOBEC3G degradation inhibitor project, dose response (AID 1117358); type: functional; conditions: Vero
[2] = RKO cell viability reduction, dose response, CellTiter-Glo luminescence (AID 1117322); type: functional
[3] = HCT116 cell viability decrease, GSK3B pretreatment – CellTiter-Glo, IC50, dose response (AID 1117339); type: functional; conditions: HCT-116
[4] = cytotoxicity toward HT-29 cells – cell-based, CellTiter-Glo luminescence, IC50, dose response (AID 1117330); type: functional
[5] = CellTiter-Glo luminescence survival assay, SW480 colon tumor line, concentration-response curve, half-maximal inhibitory concentration (AID 1117338); type: functional
[6] = cytotoxicity toward Colo320 cells – cell-based, CellTiter-Glo luminescence, IC50, dose response (AID 1117334); type: functional; conditions: COLO 320
[7] = Potency on glucagon-like peptide 1 release, dose-response in NCI-H716 cell line, half maximal inhibitory concentration (AID 1117344); type: functional, cell-based
[8] = Reduced DLD-1 viability, concentration-response, CellTiter-Glo luminescence (AID 1117352); type: functional
[9] = cytotoxicity toward HCT116 cells – cell-based, CellTiter-Glo luminescence, IC50, dose response (AID 1117332); type: functional; conditions: HCT-116
[10] = SNU-C1 cell viability reduction, dose response, CellTiter-Glo luminescence (AID 1117323); type: functional, cell-based
[11] = glucagon-like peptide-1 release potency in STC-1, concentration-response, half-maximal inhibitory concentration in the STC-1 line (AID 1117345); type: functional, cell-based
[12] = Late stage assay provider results from the probe development effort to identify inhibitors of the Plasmodium falciparum M18 Aspartyl Aminopeptidase (M18AAP): radiolabel-based cell-based dose response assay to identify compounds that inhibit P. falciparum growth in RBCs, Set 2..; type: functional
[13] = toxicity toward HepG2 liver cells – cell-based, plate reader, cherry-pick, antagonist series, cytotoxicity control, dose response (AID 743416); type: functional
[14] = viability loss in HEK293 cells – cell-based, plate reader, cherry-picked samples, cytotoxicity control, dose response (AID 743446); type: functional
[15] = growth inhibition of yeast DHODH-expressing 3D7 parasites – SYBR Green, dry powder samples, dose response (AID 1159570); type: functional, cell-based;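 also: parasite growth measured after 72 hours of compound exposure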
[16] = Dd2 malaria parasite growth inhibition potency – SYBR Green, dry powder samples, dose response (AID 1159566); type: functional, cell-based;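 also: potency for growth inhibition with lower SYBR green DNA signal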
[17] = blockade of melanocortin 4 receptor signaling – cell-based, plate reader, cherry pick, counter-screen for LGR2 antagonist project, dose response (AID 743444); type: functional;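 also: transfected HEK 293 cells stimulated with alpha-MSH peptide; potency of inhibitors of the alpha-MSH evoked signal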
[18] = blockers of bursicon-stimulated LGR2 cAMP reporter – cell-based, HEK293, CRE-luciferase reporter, cherry pick, set 2, dose response (AID 743343); type: functional;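 also: transfected cells were stimulated with diluted bursicon conditioned medium after compound addition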
[19] = toxicity to human HepG2 hepatoma cells – cell-based, plate reader, dry powder samples, cytotoxicity control, dose response (AID 1159569); type: functional;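 also: inhibitor potency with signal falling toward the positive control level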
[20] = Dd2 parasite growth inhibition in erythrocytes – SYBR Green, dry powder samples, set 9, dose response (AID 1159568); type: functional, cell-based
[21] = growth inhibition of PfATP4-mutant resistant parasites – NITD609-resistant line, SYBR Green, dry powder, dose response (AID 1159571); type: functional, cell-based;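 also: parasites synchronized at ring stage by sorbitol before testing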
[22] = A549 cell cytotoxicity, dose response, cytotoxicity control, plate reader, cherry-pick, antagonist series (AID 743412); type: functional, cell-based
[23] = P. falciparum Dd2 growth inhibitors, dose response, SYBR Green, cherry-picked samples (AID 1159567); type: functional, cell-based
[24] = biological target: COUP transcription factor 2 (Homo sapiens, UniProt P24468); experiment: Luminescence-based cell-based high throughput dose response assay to identify inhibitors of COUP-TFII (NR2F2).; type: functional;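 also: HEK293 cells transiently cotransfected with COUP-TFII expression vector and reporter; luciferase reporter luminescence driven by COUP-TFII from the pX2-168 reporter plasmid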
[25] = test system: INS1; experiment: INS-1E survival protection against cytokine death – cell-based, luminescence, retest, dose response (AID 449756); type: functional; conditions: Rattus norvegicus;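 also: cell death triggered by IL-1 beta plus TNF-alpha plus IFN-gamma mixture; protective hits raise ATP signal compared with cytokine alone wells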
[26] = OVCAR-3 cell viability loss – plate reader, dry powder samples, PAX8 inhibitor project, dose response (AID 743044); type: functional, cell-based
[27] = A2780 cell killing – plate reader, dry powder samples, cytotoxicity control, dose response (AID 743046); type: functional, cell-based
[28] = biological target: Paired box protein Pax-8 (Homo sapiens, UniProt Q06710); experiment: PAX8 transcriptional activity inhibition in RMG-I – RMG-I cells, luciferase, cherry-pick, dose response (AID 687027); type: functional, cell-based;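 also: luciferase reporter driven by Pax8 target thyroperoxidase promoter measured by SteadyGlo luminescence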
Chain of Paired box protein Pax-8 (Q06710 whole entry): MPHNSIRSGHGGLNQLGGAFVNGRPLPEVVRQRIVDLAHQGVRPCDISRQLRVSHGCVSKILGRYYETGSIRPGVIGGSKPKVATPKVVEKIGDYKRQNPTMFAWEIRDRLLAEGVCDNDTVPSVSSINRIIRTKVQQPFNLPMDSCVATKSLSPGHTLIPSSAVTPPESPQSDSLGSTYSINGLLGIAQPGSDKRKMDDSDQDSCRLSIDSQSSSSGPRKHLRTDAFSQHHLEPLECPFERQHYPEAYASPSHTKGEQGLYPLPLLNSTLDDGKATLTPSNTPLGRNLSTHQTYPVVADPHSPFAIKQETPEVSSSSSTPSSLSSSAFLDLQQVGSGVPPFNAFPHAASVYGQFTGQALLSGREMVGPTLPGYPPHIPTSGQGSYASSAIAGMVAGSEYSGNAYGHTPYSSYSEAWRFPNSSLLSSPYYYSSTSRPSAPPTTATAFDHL

Chain of COUP transcription factor 2 (P24468 whole entry): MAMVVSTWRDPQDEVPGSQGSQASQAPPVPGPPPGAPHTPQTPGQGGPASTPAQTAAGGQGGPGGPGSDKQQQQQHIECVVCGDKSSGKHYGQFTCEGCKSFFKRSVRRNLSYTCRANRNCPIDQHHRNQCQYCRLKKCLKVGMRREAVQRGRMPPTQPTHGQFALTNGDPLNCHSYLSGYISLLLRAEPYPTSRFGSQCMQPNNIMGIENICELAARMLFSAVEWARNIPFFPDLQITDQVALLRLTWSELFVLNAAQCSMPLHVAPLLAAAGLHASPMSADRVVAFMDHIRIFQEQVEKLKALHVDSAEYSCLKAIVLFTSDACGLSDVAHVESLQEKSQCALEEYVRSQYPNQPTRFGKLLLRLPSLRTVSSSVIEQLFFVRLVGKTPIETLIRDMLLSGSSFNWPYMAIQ

In the case of `S=C(Nc1ccc(Oc2ccccc2)cc1)NC1CCCCC1`, the CC50 [1] is reported as 30.1 µM (active).

With `c1ccc2c(c1)Sc1ccccc1N2CC1CN2CCC1CC2` (centres undefined) [MEQUITAZINE] the IC50 [2] was 8.46 µM (inactive), the IC50 [3] was > 20 µM (inactive) and the IC50 [4] was > 20 µM (inactive). For the same compound, the IC50 [5] was 5.43 µM (inactive), the IC50 [6] was > 20 µM (inactive) and the IC50 [7] was > 40 µM (inactive). The IC50 [8] was > 20 µM (inactive), the IC50 [9] was > 20 µM (inactive) and the IC50 [10] was > 20 µM (inactive). The IC50 [11] was > 40 µM (inactive).

In the case of `COc1cccc(CCNc2c3ccccc3nc3ccccc23)c1`, the IC50 [12] is reported as 0.6 µM (active).

For `COc1ccccc1C#Cc1ccc([C@H]2[C@@H](C#N)N(C(=O)C3CCCCC3)[C@H]2CO)cc1`, the AC50 [13] was 30.5 µM (active), the AC50 [14] was 14.9 µM (active) and the AC50 [15] was 0.862 µM (active). For the same compound, the AC50 [16] was 0.349 µM (active), the AC50 [17] was 7.87 µM (active) and the AC50 [18] was 11.3 µM (active). The AC50 [19] was 29.8 µM (active), the AC50 [20] was 1.17 µM (active) and the AC50 [21] was 0.443 µM (active). For the same compound, the AC50 [22] was 21.3 µM (active) and the AC50 [23] was 1.19 µM (active).

In the case of `Oc1ccc(CCNC2CCN(Cc3ccccc3)CC2)cc1O`, the IC50 [12] is reported as 6.5 µM (active).

In the case of `O=C(NCC(c1ccco1)N1CCCC1)c1ccc(Cl)c(S(=O)(=O)N2CCc3ccccc32)c1` (centres undefined), the IC50 [24] is reported as 7.01 µM (active) and the AC50 [25] is reported as 3.56 µM (active).

With `C[C@H](CO)N1C[C@H](C)[C@@H](CN(C)S(=O)(=O)c2ccc(Cl)cc2)OCCCC[C@H](C)Oc2ccc(NS(=O)(=O)c3ccc(F)cc3)cc2C1=O` the AC50 [26] was 36 µM (active), the AC50 [27] was 29.1 µM (active) and the AC50 [28] was 4.45 µM (active).
